What was measured:
[1] = tested on: NDM-1 BAA2469 E. coli; format: in vivo; conditions: mice, intravenous; rifampicin 10 mg/kg, colistin 20 mg/kg, HT0120663 5 mg/kg; singly
[2] = tested on: NDM-1 BAA2470 K. pneumoniae; format: in vivo; conditions: mice, intravenous; rifampicin 10 mg/kg, colistin 20 mg/kg, HT0120663 5 mg/kg; singly
[3] = tested on: enterobacteria; conditions: on some enterobacteria; cited from earlier work

Compound | in vivo activity of drug alone [1] | in vivo activity of drug alone [2] | antibacterial effect [3]
Cc1cn([C@H]2C[C@H](N=[N+]=[N-])[C@@H](CO)O2)c(=O)[nH]c1=O [HT0120663, Zidovudine] | no in vivo activity | no in vivo activity | bactericidal effect
Colistin | no in vivo activity | no in vivo activity | –
